# From PubChem BioAssay AID2305 (GlaxoSmithKline (GSK), 2010)
# pIC50: −log10 of the molar value.
# System: P. falciparum 3D7 growth, pLDH absorbance
# Assay: P. falciparum 3D7 growth inhibition, dose response, strain 3D7 (AID 2305)
row,Compound,pIC50
1,Cc1cc2nc(-c3cc(-c4cccc(NS(C)(=O)=O)c4)cnc3N)[nH]c2cc1C,6.17
2,OCc1c(Cl)cc(Cl)cc1CNCCCNc1nc2ccccc2[nH]1,6.13
3,CN1CCC(c2c[nH]c3ccc(NC(=O)Nc4ccc(-c5ccncc5)c(Cl)c4Cl)cc23)CC1,6.15
4,CC(C)(C)OC(=O)NCc1ccc(Nc2nnc(-c3ccc(OCC(=O)NCc4ccc(C(C)(C)C)cc4)c([N+](=O)[O-])c3)o2)cc1,6.10
5,CCCn1c(=N)c(C(=O)NCCc2ccccc2)cc2c(=O)n3cccc(C)c3nc21,5.95
6,C#CCCC(=O)Nc1cccc(-c2cccc(-c3nc4c(C)cccc4[nH]3)c2)c1,6.13
7,CCC1(C)CC(CCNCc2ccccc2O)(c2ccc(C)cc2)CCO1 (stereo unspecified),7.40
8,O=C(NCCCN1CCC(NC(=O)c2ccc(-c3cccnc3)cc2)CC1)c1ccc(Cl)c(Cl)c1,6.07
9,CS(=O)(=O)Nc1ccc(-c2ccc3ccnc(N)c3c2)cc1,6.21
10,O=C(Nc1ccccc1)c1ccc(N2CCC(COc3cccc(C(F)(F)F)c3)CC2)nc1,6.52
11,Cc1cccc2[nH]c(-c3ccc(-c4ccc(CN5CCCCC5)cc4)s3)nc12,6.28
12,Cc1ccc(NC(=O)c2cccc(CN3CCCN(CC4CCCCC4)CC3)c2)cc1F,6.22
13,CCc1ccc(C2CCN(CCCCNC(=O)c3ccc(NC(=O)c4ccc(Cl)cc4)cc3)CC2)c(OC)c1,6.10
14,CCOC(=O)c1ccc(NC(=O)Nc2cccc(-c3ccc(-c4nc5ccc(F)cc5[nH]4)cc3)c2)cc1,7.05
15,O=C(NCCc1ccccc1)N(Cc1cccc(-c2ccc(CNCc3ccc4c(c3)OCO4)cc2)c1)C1CCN(Cc2ccccc2)CC1,6.18
16,N#Cc1cccc(NC(=O)Nc2ccc(CC(=O)N3CCc4cc(Cl)c(N5CCN(C/C=C/c6ccccc6)CC5)cc43)cc2)c1,6.06
17,C[C@@H](Oc1cc(-n2cnc3cc(SCCN4CCN(C)CC4)ccc32)sc1C(N)=O)c1ccccc1Cl,6.29
18,O=C(Nc1cccc(C(F)(F)F)c1)Nc1cc(F)c(F)cc1Cl,5.71
19,N#Cc1c(N)nc(SCC(=O)Nc2cc(C(F)(F)F)ccc2Cl)c(C#N)c1-c1cccs1,6.13
20,Cc1nnsc1C(=O)Nc1cccc(-c2ccc(-c3nc4c(C)cccc4[nH]3)s2)c1,5.95
21,c1ccc(Oc2ccc(Nc3ccnc4ccc(-c5ccccn5)cc34)cc2)cc1,5.96
22,O=C(NCCCCN1CCC(c2cccc3ccccc23)CC1)c1ccc(NC(=O)c2ccc(Cl)cc2)cc1,6.11
23,Cc1cccc(CN2CCCN(Cc3ccc(C(=O)Nc4ccc(Cl)cc4)cc3)CC2)c1,6.22
24,CCOc1ccc(-n2nc3c(Cl)nnc(-c4ccccc4)c3c2-c2ccccc2)cc1,6.64

row,Compound,pIC50
1,Cc1c(C(=O)N2CCc3cc4nccc(N5CCN6CCC[C@H]6C5)c4cc32)cnn1-c1ccc(C#N)cc1,6.00
2,Oc1ccc(CCNc2nc(NCCOc3ccccc3-c3ccccc3)nc(N3CCNCC3)n2)cc1,5.98
3,Fc1ccc2nc(-c3cccc(-c4cccc(CN5CCN(c6ccncc6)CC5)c4)c3)[nH]c2c1,6.82
4,C=C(C)COc1ccc(-c2n[nH]c(C(F)(F)F)c2-c2ccccc2OC)c(O)c1,6.11
5,CCCc1cc(Cc2cnc(N)nc2N)cc(OCCCCCC(=O)O)c1OC,6.80
6,Cc1nc2nc(N)nc(N)c2c(C)c1Cc1ccccc1Cl,6.96
7,CC(C)c1cc(Oc2c(I)cc(CCNCc3ccccc3)cc2I)ccc1O,6.27
8,Cc1cc2nc(-c3ccc(C(=O)NCc4cccc(F)c4)cc3)[nH]c2cc1C,6.02
9,CC(=O)Nc1ccc2[nH]cc(C3CCN(CC4CCC(NC(=O)/C=C/c5ccc(Cl)c(Cl)c5)CC4)CC3)c2n1 (stereo unspecified),6.59
10,Cc1nnc2sc(-c3cccc(NC(=O)c4ccc(N5CCCCC5)c([N+](=O)[O-])c4)c3)nn12,5.89
11,CS(=O)(=O)c1ccc(-n2nc(C(F)(F)F)cc2-c2ccc(/C=N/OCC(=O)O)o2)cc1,6.01
12,CC(=NNC(=S)Nc1ccccc1Cl)c1ccccn1,7.10
13,COc1ccccc1CC1CCCN(C2CCC(NC(=O)c3cc4ccccc4[nH]3)CC2)C1 (stereo unspecified),6.08
14,NC1=NC(c2ccccc2)(c2ccccc2)C(=O)N1CCOc1ccccc1,6.08
15,COc1cc(F)c2ncc(C#N)c(CCN3CCC(NCc4ccc5c(c4)OCCO5)CC3)c2c1,6.37
16,COc1ccc(Nc2cc(C)nc(NCc3ccc4c(c3)OCO4)n2)cc1,6.11
17,O=C(Nc1cccc(C(F)(F)F)c1)Nc1ccc(F)c([N+](=O)[O-])c1,6.15
18,O=C(Nc1ccc(Cl)cc1Cl)NC1CCN(CCCCCNC(=O)[C@@H]2C[C@H]2c2ccc(Cl)c(Cl)c2)CC1,6.43
19,O=C(C=Cc1ccc(Cl)c(Cl)c1)NCCCCCN1CCCC(CCCNC(=O)c2cccs2)C1 (stereo unspecified),5.89
20,CCOC(=O)NCC(=O)Nc1cccc(-c2cccc(-c3nc4ccc(C(F)(F)F)cc4[nH]3)c2)c1,6.20
21,Cc1cc(-c2cccc(CNC3CCCC3)c2)ccc1S(=O)(=O)NCCN1CCCC1,5.91
22,CSCCCN1CCC(O)(c2ccc3oc(C(=O)Nc4ccc5sc(C)nc5c4)cc3c2)CC1,5.97
23,Cc1cc(NN=Cc2ccccc2Cl)c2ccc(F)cc2n1,6.59
24,CCc1ccc(-c2nc3cc(NC(=O)c4cc([N+](=O)[O-])cc([N+](=O)[O-])c4)ccc3o2)cc1,6.03

row,Compound,pIC50
1,CN1CCCC(OC(=O)c2ccccc2)C1 (stereo unspecified),6.12
2,Clc1cc2c(Nc3ccc(Oc4ccccc4)cc3)ccnc2cc1-c1ccc(CNCCN2CCOCC2)o1,6.15
3,Cc1[nH]c(C)c(-c2ccc(OCc3cc(C(F)(F)F)cc(C(F)(F)F)c3)nc2)c(=O)c1Cl,6.96
4,CCC1=C[C@@H]2CN(C1)Cc1c([nH]c3ccccc13)[C@@](C(=O)OC)(c1cc3c(cc1OC)N(C)[C@H]1[C@@](O)(C(=O)OC)[C@H](O)[C@]4(CC)C=CCN5CC[C@]31[C@@H]54)C2,6.06
5,Cc1cccc2[nH]c(-c3ccc(-c4ccc(CNCc5cccc(N)c5)cc4)cc3)nc12,6.24
6,COc1cc(C(=O)Nc2cccc(-c3nc4ccccc4[nH]3)c2)cc(OC)c1OC,6.14
7,COc1ccc2nccc([C@@H](O)CN3CCC(NCc4ccc5nc[nH]c(=O)c5c4)CC3)c2c1,6.04
8,COc1cc(NC(=O)c2ccc3c(=O)n(Cc4ccccc4)c(=S)[nH]c3c2)cc(OC)c1OC,6.13
9,CN1CCC(NCc2cccc(-c3nn(C)c4nc(NC5CCCC5)ncc34)c2)CC1,5.99
10,CCCCCN1CCCC(CNS(=O)(=O)c2ccc(C(=O)Nc3ccc(C(F)(F)F)cc3)cc2)C1 (stereo unspecified),6.04
11,CCCCOc1c(CCC)cc(Cc2cnc(N)nc2N)cc1CCC,6.20
12,CCCCCC(C)N=C(Nc1ccc(C#N)cc1O)Nc1cccc(Cl)c1Cl (stereo unspecified),6.10
13,COc1ccc(-c2cc(-c3nc4ccc(CN)cc4[nH]3)c(=O)n(C)c2)cc1OC,5.85
14,Cn1nccc1C(=O)NCCNCc1ccc(-c2ccc(-c3nc4ccc(C(F)(F)F)cc4[nH]3)cc2)cc1,6.82
15,Cc1ccc(NC(=O)c2ccc(CN3CCCN(Cc4cccc(Cl)c4)CC3)cc2)cc1C,5.92
16,CN1CCN(CCCN(Cc2ccc(-c3ccc(CNCc4ccc5c(c4)OCO5)cc3)cc2)C(=O)Nc2ccccc2)CC1,6.15
17,CCn1c(-c2nonc2N)nc2c(-c3cccc(NC(=O)Nc4ccccc4Cl)c3)ncc(OCCCN)c21,6.17
18,COc1ccccc1NC(=O)Nc1cccc(-c2ccc(-c3nc4c(C)cccc4[nH]3)s2)c1,6.24
19,CC[C@H](C)CNC(=O)c1ccnc(-c2ccc(CN3CCC(N4CCCC4)CC3)cc2)c1,6.05
20,O=C(NC1CCN(CCCOc2ccnc3cc(Cl)ccc23)C1)c1ccc(Br)cc1 (stereo unspecified),5.99
21,CN1CCN(CCNc2c3ccccc3nc3ccc4ccccc4c23)CC1,6.28
22,Cc1ccc(O)cc1C[C@@H]1C(=O)CC[C@@]2(C)[C@H]1CC[C@]2(C)O,6.02
23,COC(=O)CCCOc1cc(Cc2cnc(N)nc2N)cc(OC)c1OC,6.11
24,Cc1cc(CNCCCCCCCNCc2cccc([N+](=O)[O-])c2)ccc1O,6.19

row,Compound,pIC50
1,O=C1c2ccccc2C(=O)N1CCOc1c(Br)cc(Br)cc1CNCCCNc1cc(=O)c2ccccc2[nH]1,6.08
2,CCCCC(N)COc1cccc2c(-c3ccncc3)c(-c3cccc(NC(=O)Nc4ccccc4)c3)nn12 (stereo unspecified),6.06
3,CNC(=O)c1ccccc1Nc1nc(Nc2ccc(N3CCOCC3)cc2)ncc1Cl,6.14
4,CCOc1ccc(NC(=O)c2cccc(CN3CCCN(Cc4cccc(O)c4)CC3)c2)cc1,5.97
5,CN1CCN(c2ccnc3ccc(NC(=O)Nc4ccc(Br)cc4)cc23)CC1,7.05
6,COc1cccc(C(C)(C)NC[C@@H](O)[C@H](Cc2ccccc2)NC(=O)c2cc(C3CCCC3)cc(N3CCCCS3(=O)=O)c2F)c1,7.52
7,CCOc1c(CCNCCCCNCCc2ccc3ccccc3c2OCC)ccc2ccccc12,6.22
8,CC[C@H](C)CNC(=O)c1cncc(-c2cccc(CN(C)C3CCN(C)CC3)c2)c1,6.11
9,N#CCCn1nc(-c2ccc(Cl)cc2)c2c(c1=O)CCCC2,6.05
10,CC(C)(CNCc1cccc(Oc2cccc(C(F)(F)F)c2)c1)c1nc(-c2ccc(Cl)c(O)c2)c(-c2ccnc(N)n2)[nH]1,6.72
11,CC(C)N1CCN(c2ccc(OCCCCN3CCN(c4cccc(Cl)c4Cl)CC3)c(C(F)(F)F)c2)CC1,6.09
12,COc1ccc(CNCc2ccsc2)cc1-c1ccc(OC)c(S(=O)(=O)NCCN2CCCC2)c1,6.04
13,Cc1[nH]c2ccccc2c1C=NNc1nc(Nc2ccccc2)nc(Nc2ccccc2)n1,6.03
14,O=S(=O)(c1ccc(OC(F)(F)F)cc1)C1C[C@H]2CC[C@@H](C1)N2S(=O)(=O)c1ccc(Cl)c(C(F)(F)F)c1 (stereo partly specified),6.25
15,O=C(NC1CC1)C1CCN(Cc2cc3ccccc3n2Cc2ccc(Cl)cc2)CC1,6.31
16,COc1ccc(Cc2nc(N=C(N)Nc3ccccc3)ccc2OC)cc1,6.07
17,COc1cc(NC(=O)Nc2ccnc3ccccc23)cc(OC)c1,6.33
18,O=C(Nc1cccc(-c2ccc(-c3nc4ccccc4[nH]3)cc2)c1)c1ccncc1,6.28
19,O=C(CN1CCN(C(=O)c2ccco2)CC1)Nc1ccc(Br)cc1Cl,6.11
20,Cc1[nH]c(C)c(-c2ccc(Cl)cc2)c(=O)c1I,6.17
21,Cc1ccc(Nc2nccc(Nc3ccc4c(C)[nH]nc4c3)n2)cc1F,6.11
22,O=C(Cn1c(CCc2cccc(F)c2F)nc(=O)c2ccccc21)N(CCN1CCCCC1)Cc1ccc(-c2ccc(C(F)(F)F)cc2)cc1,6.12
23,CCOCc1cnc(C)nc1NCC(=O)c1c(C)[nH]c2cc(C)ccc12,5.92
24,NC(=O)c1cccc(-n2ccc3cc(CNC4Cc5ccccc5C4)ccc32)c1,5.95
